Reference: the supplement of paper PMC10307832

What was measured:
Assay in all cases: relative viability (nuclei count vs DMSO), 5 days (fraction); higher = more cells survive
Vismodegib + Luminespib = compound: CS(=O)(=O)c1ccc(C(=O)Nc2ccc(Cl)c(-c3ccccn3)c2)c(Cl)c1 [Vismodegib] + CCNC(=O)c1noc(-c2cc(C(C)C)c(O)cc2O)c1-c1ccc(CN2CCOCC2)cc1 [Luminespib] (partner 0.01 µM)
Summary of the method: (§1)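 Values are medians from duplicate plates. Each reflects relative viability, defined as the nuclei count of treated wells over that of vehicle wells. Lung cancer cell lines in 1536-well plates were pin-tool dosed one day after seeding with one drug alone or with a fixed anchor-drug dose plus five library-drug doses (not always all listed) in √10 steps, then fixed, stained and imaged at 4× after 5 days.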

Vismodegib + Foretinib = compound: CS(=O)(=O)c1ccc(C(=O)Nc2ccc(Cl)c(-c3ccccn3)c2)c(Cl)c1 [Vismodegib] + COc1cc2c(Oc3ccc(NC(=O)C4(C(=O)Nc5ccc(F)cc5)CC4)cc3F)ccnc2cc1OCCCN1CCOCC1 [Foretinib] (partner 0.25 µM)
Summary of the method: as §1

Ruxolitinib + OSI-027 = compound: N#CC[C@H](C1CCCC1)n1cc(-c2ncnc3[nH]ccc23)cn1 [Ruxolitinib] + COc1cccc2cc(-c3nc([C@H]4CC[C@H](C(=O)O)CC4)n4ncnc(N)c34)[nH]c12 [OSI-027] (partner 0.5 µM)
Summary of the method: as §1

Ruxolitinib + Pemetrexed = compound: N#CC[C@H](C1CCCC1)n1cc(-c2ncnc3[nH]ccc23)cn1 [Ruxolitinib] + Nc1nc2[nH]cc(CCc3ccc(C(=O)N[C@@H](CCC(=O)O)C(=O)O)cc3)c2c(=O)[nH]1 [Pemetrexed] (partner 0.2 µM)
Summary of the method: as §1

UMC-11
relative viability (Vismodegib + Luminespib; first compound 0.08 µM): 0.937
relative viability (Vismodegib + Luminespib; first compound 0.253 µM): 0.966
relative viability (Vismodegib + Luminespib; first compound 0.8 µM): 1.01
relative viability (Vismodegib + Luminespib; first compound 2.53 µM): 0.933
relative viability (Vismodegib + Luminespib; first compound 8 µM): 1.04
relative viability (Vismodegib + Foretinib; first compound 0.08 µM): 0.996
relative viability (Vismodegib + Foretinib; first compound 0.253 µM): 0.961
relative viability (Vismodegib + Foretinib; first compound 0.8 µM): 1.07
relative viability (Vismodegib + Foretinib; first compound 2.53 µM): 0.923
relative viability (Vismodegib + Foretinib; first compound 8 µM): 1.04
relative viability (Ruxolitinib + OSI-027; first compound 0.08 µM): 0.474
relative viability (Ruxolitinib + OSI-027; first compound 0.253 µM): 0.448
relative viability (Ruxolitinib + OSI-027; first compound 0.8 µM): 0.561
relative viability (Ruxolitinib + OSI-027; first compound 2.53 µM): 0.498
relative viability (Ruxolitinib + OSI-027; first compound 8 µM): 0.574
relative viability (Ruxolitinib + Pemetrexed; first compound 0.08 µM): 0.795
relative viability (Ruxolitinib + Pemetrexed; first compound 0.253 µM): 0.777
relative viability (Ruxolitinib + Pemetrexed; first compound 0.8 µM): 0.757
relative viability (Ruxolitinib + Pemetrexed; first compound 2.53 µM): 0.924
relative viability (Ruxolitinib + Pemetrexed; first compound 8 µM): 0.786
